Laboratory results from patent US10870647B2, “Imidazopyridine derivative, method for preparing same, and pharmaceutical composition containing same as active ingredient for preventing or treating cancer” (DAEGU-GYEONGBUK MEDICAL INNOVATION FOUNDATION, priority 2016, dated 2020).

What was measured:
Assay in all cases: Kinase selectivity, scanMAX Kinase assay panel (DiscoverX), % control at 1 uM
Type in all cases: binding
[1] = molecular target: T1, scanMAX Kinase assay panel (Homo sapiens, UniProt Q13177); details: PAK2; 1 uM; read-out: Percent Control (%)
T1 construct: purchased DiscoverX
T1 sequence (Q13177 whole entry): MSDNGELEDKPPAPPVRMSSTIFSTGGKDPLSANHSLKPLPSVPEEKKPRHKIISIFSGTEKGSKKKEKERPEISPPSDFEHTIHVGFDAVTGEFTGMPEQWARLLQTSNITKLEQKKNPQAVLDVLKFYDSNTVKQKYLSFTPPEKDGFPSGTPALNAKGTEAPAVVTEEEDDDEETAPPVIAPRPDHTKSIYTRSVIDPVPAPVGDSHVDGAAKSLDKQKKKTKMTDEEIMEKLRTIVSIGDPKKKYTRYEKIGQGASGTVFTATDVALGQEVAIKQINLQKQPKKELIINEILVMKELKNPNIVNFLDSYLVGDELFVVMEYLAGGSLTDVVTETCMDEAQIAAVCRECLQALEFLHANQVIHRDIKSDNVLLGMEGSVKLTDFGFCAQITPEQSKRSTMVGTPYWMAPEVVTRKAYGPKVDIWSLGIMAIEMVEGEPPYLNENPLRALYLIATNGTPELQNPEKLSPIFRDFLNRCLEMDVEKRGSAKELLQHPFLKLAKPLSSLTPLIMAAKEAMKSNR
Method in brief: (§1)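 Read-out is percent of control, derived from the signal with compound relative to positive and negative controls: (compound − positive)/(negative − positive) × 100. Each enzyme received test drug at 1 uM in DMSO, and values under 35% count as active.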

[2] = molecular target: T2, scanMAX Kinase assay panel (Homo sapiens, UniProt P43403); details: ZAP70; 1 uM; read-out: Percent Control (%)
T2 construct: purchased DiscoverX
T2 sequence (P43403 1-619): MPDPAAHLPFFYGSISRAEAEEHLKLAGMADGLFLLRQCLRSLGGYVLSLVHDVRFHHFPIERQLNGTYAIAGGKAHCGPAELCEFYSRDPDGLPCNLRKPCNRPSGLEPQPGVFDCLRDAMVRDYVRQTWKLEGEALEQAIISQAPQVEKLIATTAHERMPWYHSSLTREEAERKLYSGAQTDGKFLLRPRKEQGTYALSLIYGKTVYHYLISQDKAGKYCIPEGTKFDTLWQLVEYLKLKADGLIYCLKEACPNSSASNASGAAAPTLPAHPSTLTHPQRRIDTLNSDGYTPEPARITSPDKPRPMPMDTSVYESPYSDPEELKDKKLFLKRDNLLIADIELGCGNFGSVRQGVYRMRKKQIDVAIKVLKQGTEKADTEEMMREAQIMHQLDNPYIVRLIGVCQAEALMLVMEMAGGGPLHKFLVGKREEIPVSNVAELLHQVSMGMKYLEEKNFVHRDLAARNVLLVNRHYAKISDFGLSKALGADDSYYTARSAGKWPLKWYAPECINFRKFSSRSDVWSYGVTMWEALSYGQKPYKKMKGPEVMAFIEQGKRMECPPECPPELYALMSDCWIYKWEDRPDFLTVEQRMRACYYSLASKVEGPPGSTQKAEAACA
Method in brief: as §1

[3] = molecular target: T3, scanMAX Kinase assay panel (Homo sapiens, UniProt P09769); details: FGR; 1 uM; read-out: Percent Control (%)
T3 construct: purchased DiscoverX
T3 sequence (P09769 whole entry): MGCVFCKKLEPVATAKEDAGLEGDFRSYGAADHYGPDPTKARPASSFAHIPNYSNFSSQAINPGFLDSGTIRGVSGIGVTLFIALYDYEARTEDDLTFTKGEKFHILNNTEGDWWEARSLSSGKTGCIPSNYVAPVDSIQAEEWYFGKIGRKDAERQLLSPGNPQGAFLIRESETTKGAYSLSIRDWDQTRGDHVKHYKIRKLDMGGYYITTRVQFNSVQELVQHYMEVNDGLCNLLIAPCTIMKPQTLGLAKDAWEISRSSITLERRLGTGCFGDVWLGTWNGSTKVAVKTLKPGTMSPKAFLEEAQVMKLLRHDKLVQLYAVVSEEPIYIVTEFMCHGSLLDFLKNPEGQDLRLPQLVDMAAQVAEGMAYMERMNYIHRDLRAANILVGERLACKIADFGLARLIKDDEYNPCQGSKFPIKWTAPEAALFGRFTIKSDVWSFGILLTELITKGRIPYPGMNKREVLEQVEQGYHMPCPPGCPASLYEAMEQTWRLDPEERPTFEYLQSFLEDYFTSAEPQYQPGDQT
Method in brief: as §1

[4] = molecular target: T4, scanMAX Kinase assay panel (Homo sapiens, UniProt P51617); details: IRAK1; 1 uM; read-out: Percent Control (%)
T4 construct: purchased DiscoverX
T4 sequence (P51617 whole entry): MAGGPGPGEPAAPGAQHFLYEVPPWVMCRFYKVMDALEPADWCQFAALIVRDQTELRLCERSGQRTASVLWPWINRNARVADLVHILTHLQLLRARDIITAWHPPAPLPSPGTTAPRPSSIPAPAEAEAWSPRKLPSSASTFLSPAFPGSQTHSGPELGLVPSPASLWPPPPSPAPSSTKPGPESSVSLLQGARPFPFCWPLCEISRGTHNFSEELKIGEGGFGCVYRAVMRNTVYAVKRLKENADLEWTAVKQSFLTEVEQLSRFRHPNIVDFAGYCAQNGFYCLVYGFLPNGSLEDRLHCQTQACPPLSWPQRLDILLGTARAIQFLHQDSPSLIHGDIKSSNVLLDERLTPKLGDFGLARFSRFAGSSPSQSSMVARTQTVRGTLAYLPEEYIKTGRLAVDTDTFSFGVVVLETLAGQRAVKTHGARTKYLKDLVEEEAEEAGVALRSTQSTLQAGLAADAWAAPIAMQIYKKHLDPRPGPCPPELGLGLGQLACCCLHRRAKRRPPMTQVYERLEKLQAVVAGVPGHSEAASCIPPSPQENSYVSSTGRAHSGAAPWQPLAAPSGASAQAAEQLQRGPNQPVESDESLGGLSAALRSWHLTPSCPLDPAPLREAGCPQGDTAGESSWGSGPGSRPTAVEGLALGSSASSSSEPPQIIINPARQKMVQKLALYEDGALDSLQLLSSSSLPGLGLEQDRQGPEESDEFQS
Method in brief: as §1

[5] = molecular target: T5, scanMAX Kinase assay panel (Homo sapiens, UniProt Q92630); details: DYRK2; 1 uM; read-out: Percent Control (%)
T5 construct: purchased DiscoverX
T5 sequence (Q92630 1-601): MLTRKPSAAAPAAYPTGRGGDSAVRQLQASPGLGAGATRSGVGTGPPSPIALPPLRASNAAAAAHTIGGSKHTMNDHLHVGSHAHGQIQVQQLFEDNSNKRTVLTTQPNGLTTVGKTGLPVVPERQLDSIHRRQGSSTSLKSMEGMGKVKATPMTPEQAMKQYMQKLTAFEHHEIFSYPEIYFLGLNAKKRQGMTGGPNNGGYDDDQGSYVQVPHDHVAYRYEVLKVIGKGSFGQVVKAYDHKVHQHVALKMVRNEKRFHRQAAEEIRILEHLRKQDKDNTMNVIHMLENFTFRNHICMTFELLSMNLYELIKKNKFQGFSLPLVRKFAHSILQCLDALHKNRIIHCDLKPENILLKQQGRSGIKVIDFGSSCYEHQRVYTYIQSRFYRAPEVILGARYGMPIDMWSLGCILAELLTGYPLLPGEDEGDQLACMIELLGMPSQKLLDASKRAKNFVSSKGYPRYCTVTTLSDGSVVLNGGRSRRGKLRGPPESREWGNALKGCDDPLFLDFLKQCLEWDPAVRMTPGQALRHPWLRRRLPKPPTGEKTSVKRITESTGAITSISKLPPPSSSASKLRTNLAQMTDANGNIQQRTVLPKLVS
Method in brief: as §1

[6] = molecular target: T6, scanMAX Kinase assay panel (Homo sapiens, UniProt P31152); details: ERK4; 1 uM; read-out: Percent Control (%)
T6 construct: purchased DiscoverX
T6 sequence (P31152 whole entry): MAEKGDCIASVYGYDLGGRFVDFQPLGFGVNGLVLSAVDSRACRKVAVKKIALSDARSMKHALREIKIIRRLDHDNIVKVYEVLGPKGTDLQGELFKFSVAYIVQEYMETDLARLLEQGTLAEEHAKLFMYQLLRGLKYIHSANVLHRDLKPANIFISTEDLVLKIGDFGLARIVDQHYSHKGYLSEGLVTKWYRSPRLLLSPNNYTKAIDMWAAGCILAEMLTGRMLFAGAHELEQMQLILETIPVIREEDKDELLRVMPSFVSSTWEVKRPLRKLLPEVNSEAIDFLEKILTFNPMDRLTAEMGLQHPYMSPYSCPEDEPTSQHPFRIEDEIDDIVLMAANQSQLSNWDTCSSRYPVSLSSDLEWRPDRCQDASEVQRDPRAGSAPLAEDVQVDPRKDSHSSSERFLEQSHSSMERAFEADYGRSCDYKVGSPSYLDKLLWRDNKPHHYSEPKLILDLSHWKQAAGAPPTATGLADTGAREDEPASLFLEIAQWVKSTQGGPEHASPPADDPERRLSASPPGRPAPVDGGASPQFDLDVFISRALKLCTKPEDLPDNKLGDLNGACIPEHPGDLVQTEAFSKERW
Method in brief: as §1

[7] = molecular target: T7, scanMAX Kinase assay panel (Homo sapiens, UniProt O00329); details: PIK3CD; 1 uM; read-out: Percent Control (%)
T7 construct: purchased DiscoverX
T7 sequence (O00329 1-1044): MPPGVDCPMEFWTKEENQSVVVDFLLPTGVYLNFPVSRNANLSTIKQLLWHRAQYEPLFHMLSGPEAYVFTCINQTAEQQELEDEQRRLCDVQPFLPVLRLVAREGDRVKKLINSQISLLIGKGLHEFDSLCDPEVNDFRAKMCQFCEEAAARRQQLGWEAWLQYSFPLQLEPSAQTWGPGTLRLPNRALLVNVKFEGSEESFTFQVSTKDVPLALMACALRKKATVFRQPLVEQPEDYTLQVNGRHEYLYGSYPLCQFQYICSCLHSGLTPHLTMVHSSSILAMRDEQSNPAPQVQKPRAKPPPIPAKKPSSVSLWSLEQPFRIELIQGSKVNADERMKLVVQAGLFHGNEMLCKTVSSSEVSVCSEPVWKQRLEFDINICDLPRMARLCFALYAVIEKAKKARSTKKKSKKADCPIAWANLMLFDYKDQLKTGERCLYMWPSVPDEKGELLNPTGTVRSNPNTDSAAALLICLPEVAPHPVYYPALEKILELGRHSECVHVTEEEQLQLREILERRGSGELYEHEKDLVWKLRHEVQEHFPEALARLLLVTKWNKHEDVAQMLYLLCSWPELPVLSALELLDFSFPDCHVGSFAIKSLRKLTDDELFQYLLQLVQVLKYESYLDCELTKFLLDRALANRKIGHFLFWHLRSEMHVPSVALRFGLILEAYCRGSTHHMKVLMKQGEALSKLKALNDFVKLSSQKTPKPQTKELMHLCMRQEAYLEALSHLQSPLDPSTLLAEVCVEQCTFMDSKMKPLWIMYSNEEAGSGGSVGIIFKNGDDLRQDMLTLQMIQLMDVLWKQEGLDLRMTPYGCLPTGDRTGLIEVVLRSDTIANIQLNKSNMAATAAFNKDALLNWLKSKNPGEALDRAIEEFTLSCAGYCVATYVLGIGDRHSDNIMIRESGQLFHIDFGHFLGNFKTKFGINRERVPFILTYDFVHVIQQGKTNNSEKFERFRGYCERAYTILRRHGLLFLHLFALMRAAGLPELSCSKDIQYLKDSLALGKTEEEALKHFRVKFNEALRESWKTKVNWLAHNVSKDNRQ
Method in brief: as §1

Row | SMILES | remaining binding at 1 µM [1] | remaining binding at 1 µM [2] | remaining binding at 1 µM [3] | remaining binding at 1 µM [4] | remaining binding at 1 µM [5] | remaining binding at 1 µM [6] | remaining binding at 1 µM [7]
1 | Cc1ccc(NC(=O)C2(C(=O)Nc3ccc(F)cc3)CC2)cc1C#Cc1cnc2c(Nc3cnn(C(C)C)c3)cccn12 [Example 78] | 100% | 96% | 80% | 100% | 94% | 100% | 100%
2 | Cc1cn(-c2cc(NC(=O)c3ccc(C)c(C#Cc4cnc5c(Nc6cnn(C)c6)cccn45)c3)cc(C(F)(F)F)c2)cn1 [Example 12, 4-methyl-N-(3-(4-methyl-1H-imidazol-1-yl)-5-(trifluoromethyl)phenyl)-3-((8-((1-methyl-1H-pyrazol-4-yl)amino)imidazo[1,2-a]pyridin-3-yl)ethynyl)benzamide] | 54% | 100% | 4% | 100% | 91% | 100% | 100%
3 | Cc1ccc(C(=O)Nc2ccc(CN3CCN(C)CC3)c(C(F)(F)F)c2)cc1C#Cc1cnc2c(Nc3cnn(C)c3)cccn12 [Example 1, 4-methyl-3-((8-((1-methyl-1H-pyrazol-4-yl)amino)imidazo[1,2-a]pyridin-3-yl)ethynyl)-N-(4-((4-methylpiperazin-1-yl)methyl)-3-(trifluoromethyl)phenyl)benzamide] | 64% | 26% | 0% | 6% | 75% | 91% | 89%
